Results taken from US8952024B2, “Herbicidal pyrimidone derivatives” (E I du Pont de Nemours and Company, priority 2009, dated 2015).

Columns and labels:
Type in all cases: in vivo
[1] = tested on: morningglory (Ipomoea coccinea); assay: Test B pre-/postemergence plant response; conditions: for Morningglory plant response rating (0 to 100 scale): 62 g ai/ha, 0 is no effect, 13 to 15 days
Method in brief: (§1)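 Visual ratings on a 0–100 scale (100 = complete control) were made versus untreated controls 13–15 days after treatment in a greenhouse. Compounds in surfactant-containing non-phytotoxic solvent were applied preemergence to seeds in loam–sand blend or postemergence to 1- to 4-leaf plants (2–18 cm).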

[2] = tested on: bermudagrass (Cynodon dactylon); assay: Test B pre-/postemergence plant response; conditions: for Bermudagrass plant response rating (0 to 100 scale): 62 g ai/ha, 0 is no effect, 13 to 15 days
Method in brief: as §1

[3] = tested on: cocklebur (Xanthium strumarium); assay: Test B pre-/postemergence plant response; conditions: for Cocklebur plant response rating (0 to 100 scale): 62 g ai/ha, 0 is no effect, 13 to 15 days
Method in brief: as §1

[4] = tested on: johnsongrass (Sorghum halepense); assay: Test B pre-/postemergence plant response; conditions: for Johnsongrass plant response rating (0 to 100 scale): 62 g ai/ha, 0 is no effect, 13 to 15 days
Method in brief: as §1

kochia (Kochia scoparia) = assay: Test B pre-/postemergence plant response; conditions: for Kochia plant response rating (0 to 100 scale): 62 g ai/ha, 0 is no effect, 13 to 15 days
Method in brief: as §1

[5] = tested on: blackgrass (Alopecurus myosuroides); assay: Test B pre-/postemergence plant response; conditions: for Blackgrass plant response rating (0 to 100 scale): 62 g ai/ha, 0 is no effect, 13 to 15 days
Method in brief: as §1

soybean (Glycine max) = assay: Test B pre-/postemergence plant response; conditions: for Soybean plant response rating (0 to 100 scale): 62 g ai/ha, 0 is no effect, 13 to 15 days
Method in brief: as §1

wild oat (Avena fatua) = assay: Test B pre-/postemergence plant response; conditions: for Oat, Wild plant response rating (0 to 100 scale): 62 g ai/ha, 0 is no effect, 13 to 15 days
Method in brief: as §1

corn (Zea mays) = assay: Test B pre-/postemergence plant response; conditions: for Corn plant response rating (0 to 100 scale): 62 g ai/ha, 0 is no effect, 13 to 15 days
Method in brief: as §1

[6] = tested on: giant foxtail (Setaria faberii); assay: Test B pre-/postemergence plant response; conditions: for Foxtail, Giant plant response rating (0 to 100 scale): 62 g ai/ha, 0 is no effect, 13 to 15 days
Method in brief: as §1

[7] = tested on: canarygrass (Phalaris minor); assay: Test B postemergence plant response; conditions: for Canarygrass plant response rating (0 to 100 scale): 62 g ai/ha, 0 is no effect, 13 to 15 days
Method in brief: (§2)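 Plants grown in peat/vermiculite medium were sprayed postemergence at 2–18 cm height (1- to 4-leaf stage). After 13–15 days in the greenhouse, response was rated visually against untreated controls on a 0–100 scale (0 no effect, 100 complete control).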

[8] = tested on: winter barley (Hordeum vulgare); assay: Test B postemergence plant response; conditions: for Barley plant response rating (0 to 100 scale): 62 g ai/ha, 0 is no effect, 13 to 15 days
Method in brief: as §2

[9] = tested on: windgrass (Apera spica-venti); assay: Test B postemergence plant response; conditions: for Windgrass plant response rating (0 to 100 scale): 62 g ai/ha, 0 is no effect, 13 to 15 days
Method in brief: as §2

[10] = tested on: chickweed (Stellaria media); assay: Test B postemergence plant response; conditions: for Chickweed plant response rating (0 to 100 scale): 62 g ai/ha, 0 is no effect, 13 to 15 days
Method in brief: as §2

[11] = 31 g ai/ha, postemergence, scale 0 to 100, 0 is no effect, 100 is complete control
[12] = postemergence, 100 is complete control
[13] = Postemergence, 250 g ai/ha, scale 0 to 100 (0 no effect, 100 complete control)
[14] = Postemergence, 125 g ai/ha, visual rating after 13 to 15 days, scale 0 (no effect) to 100 (complete control)

SMILES: O=C1CCCC(OC(=O)C2CC2)=C1C(=O)c1cnc(-c2ccccc2)n(-c2ccccc2)c1=O [Compound 88]
- Plant response rating, Morningglory [1, 11]: 90
- Morningglory plant response rating (0 to 100 scale) [1, 12]: 90
- Plant response rating, Morningglory [1, 13]: 95
- Plant response rating, Bermudagrass [2, 11]: 80
- Bermudagrass plant response rating (0 to 100 scale) [2, 12]: 80
- Plant response rating, Bermudagrass [2, 14]: 80
- Plant response rating, Bermudagrass [2, 13]: 85
- Plant response rating, Cocklebur [3, 11]: 90
- Cocklebur plant response rating (0 to 100 scale) [3, 12]: 90
- Plant response rating, Cocklebur [3, 14]: 95
- Plant response rating, Cocklebur [3, 13]: 95
- Plant response rating, Johnsongrass [4, 11]: 95
- Johnsongrass plant response rating (0 to 100 scale) [4, 12]: 100
- Plant response rating, Johnsongrass [4, 13]: 100
- Plant response rating, Kochia (kochia (Kochia scoparia); [11]): 75
- Kochia plant response rating (0 to 100 scale) (kochia (Kochia scoparia); [12]): 75
- Plant response rating, Kochia (kochia (Kochia scoparia); [13]): 85
- Plant response rating, Blackgrass [5, 11]: 0
- Blackgrass plant response rating (0 to 100 scale) [5, 12]: 5
- Plant response rating, Blackgrass [5, 14]: 5
- Plant response rating, Blackgrass [5, 13]: 10
- Plant response rating, Soybean (soybean (Glycine max); [11]): 75
- Soybean plant response rating (0 to 100 scale) (soybean (Glycine max); [12]): 90
- Plant response rating, Soybean (soybean (Glycine max); [13]): 98
- Plant response rating, Oat, Wild (wild oat (Avena fatua); [11]): 50
- Oat, Wild plant response rating (0 to 100 scale) (wild oat (Avena fatua); [12]): 55
- Plant response rating, Oat, Wild (wild oat (Avena fatua); [13]): 80
- Plant response rating, Corn (corn (Zea mays); [11]): 15
- Corn plant response rating (0 to 100 scale) (corn (Zea mays); [12]): 65
- Plant response rating, Corn (corn (Zea mays); [14]): 65
- Plant response rating, Corn (corn (Zea mays); [13]): 80
- Plant response rating, Foxtail, Giant [6, 11]: 95
- Foxtail, Giant plant response rating (0 to 100 scale) [6, 12]: 95
- Plant response rating, Foxtail, Giant [6, 13]: 95
- Plant response rating, Canarygrass [7, 11]: 60
- Canarygrass plant response rating (0 to 100 scale) [7, 12]: 70
- Plant response rating, Canarygrass [7, 14]: 80
- Plant response rating, Canarygrass [7, 13]: 90
- Plant response rating, Barley [8, 11]: 30
- Barley plant response rating (0 to 100 scale) [8, 12]: 30
- Plant response rating, Barley [8, 14]: 40
- Plant response rating, Barley [8, 13]: 80
- Plant response rating, Windgrass [9, 11]: 40
- Windgrass plant response rating (0 to 100 scale) [9, 12]: 60
- Plant response rating, Windgrass [9, 13]: 70
- Plant response rating, Chickweed [10, 11]: 75
- Chickweed plant response rating (0 to 100 scale) [10, 12]: 85
- Plant response rating, Chickweed [10, 14]: 95
- Plant response rating, Chickweed [10, 13]: 95

SMILES: CCCCCn1c(-c2ccccc2)ncc(C(=O)C2=C(O)CCCC2=O)c1=O [Compound 89]
- Plant response rating, Morningglory [1, 11]: 70
- Morningglory plant response rating (0 to 100 scale) [1, 12]: 85
- Plant response rating, Morningglory [1, 13]: 100
- Plant response rating, Bermudagrass [2, 11]: 75
- Bermudagrass plant response rating (0 to 100 scale) [2, 12]: 85
- Plant response rating, Bermudagrass [2, 14]: 95
- Plant response rating, Bermudagrass [2, 13]: 95
- Plant response rating, Cocklebur [3, 11]: 10
- Cocklebur plant response rating (0 to 100 scale) [3, 12]: 60
- Plant response rating, Cocklebur [3, 14]: 65
- Plant response rating, Cocklebur [3, 13]: 70
- Plant response rating, Johnsongrass [4, 11]: 25
- Johnsongrass plant response rating (0 to 100 scale) [4, 12]: 90
- Plant response rating, Johnsongrass [4, 13]: 100
- Plant response rating, Kochia (kochia (Kochia scoparia); [11]): 65
- Kochia plant response rating (0 to 100 scale) (kochia (Kochia scoparia); [12]): 75
- Plant response rating, Kochia (kochia (Kochia scoparia); [13]): 100
- Plant response rating, Blackgrass [5, 11]: 10
- Blackgrass plant response rating (0 to 100 scale) [5, 12]: 15
- Plant response rating, Blackgrass [5, 14]: 20
- Plant response rating, Blackgrass [5, 13]: 30
- Plant response rating, Soybean (soybean (Glycine max); [11]): 90
- Soybean plant response rating (0 to 100 scale) (soybean (Glycine max); [12]): 90
- Plant response rating, Soybean (soybean (Glycine max); [13]): 98
- Plant response rating, Oat, Wild (wild oat (Avena fatua); [11]): 10
- Oat, Wild plant response rating (0 to 100 scale) (wild oat (Avena fatua); [12]): 10
- Plant response rating, Oat, Wild (wild oat (Avena fatua); [13]): 50
- Plant response rating, Corn (corn (Zea mays); [11]): 80
- Corn plant response rating (0 to 100 scale) (corn (Zea mays); [12]): 95
- Plant response rating, Corn (corn (Zea mays); [14]): 98
- Plant response rating, Corn (corn (Zea mays); [13]): 98
- Plant response rating, Foxtail, Giant [6, 11]: 70
- Foxtail, Giant plant response rating (0 to 100 scale) [6, 12]: 85
- Plant response rating, Foxtail, Giant [6, 13]: 98
- Plant response rating, Canarygrass [7, 11]: 10
- Canarygrass plant response rating (0 to 100 scale) [7, 12]: 35
- Plant response rating, Canarygrass [7, 14]: 50
- Plant response rating, Canarygrass [7, 13]: 60
- Plant response rating, Barley [8, 11]: 0
- Barley plant response rating (0 to 100 scale) [8, 12]: 5
- Plant response rating, Barley [8, 14]: 10
- Plant response rating, Barley [8, 13]: 20
- Plant response rating, Windgrass [9, 11]: 0
- Windgrass plant response rating (0 to 100 scale) [9, 12]: 5
- Plant response rating, Windgrass [9, 13]: 50
- Plant response rating, Chickweed [10, 11]: 75
- Chickweed plant response rating (0 to 100 scale) [10, 12]: 80
- Plant response rating, Chickweed [10, 14]: 98
- Plant response rating, Chickweed [10, 13]: 98
